Experimental data taken from ChEMBL document CHEMBL5465560, “Selectivity Literature for EUbOPEN Chemogenomic Library” (2024).
Blank lines part the entries; values can stand above or below the compound they belong to.

Assays:
[1] = target: AP2-associated protein kinase 1 (Homo sapiens, UniProt Q2M2I8); assay: Selectivity interaction (Ambit KINOMEscan and KiNATiv profiling in Jurkat cells) EUB0000090b AAK1; assay type: cell-based; settings: at 1 µM
[2] = target: T1, Cyclin-dependent kinase 11A (Homo sapiens) (UniProt Q9UQ88); assay: Selectivity interaction (Ambit KINOMEscan and KiNATiv profiling in Jurkat cells) EUB0000090b CDK11A; assay type: cell-based; settings: at 1 µM
T1 sequence (whole entry): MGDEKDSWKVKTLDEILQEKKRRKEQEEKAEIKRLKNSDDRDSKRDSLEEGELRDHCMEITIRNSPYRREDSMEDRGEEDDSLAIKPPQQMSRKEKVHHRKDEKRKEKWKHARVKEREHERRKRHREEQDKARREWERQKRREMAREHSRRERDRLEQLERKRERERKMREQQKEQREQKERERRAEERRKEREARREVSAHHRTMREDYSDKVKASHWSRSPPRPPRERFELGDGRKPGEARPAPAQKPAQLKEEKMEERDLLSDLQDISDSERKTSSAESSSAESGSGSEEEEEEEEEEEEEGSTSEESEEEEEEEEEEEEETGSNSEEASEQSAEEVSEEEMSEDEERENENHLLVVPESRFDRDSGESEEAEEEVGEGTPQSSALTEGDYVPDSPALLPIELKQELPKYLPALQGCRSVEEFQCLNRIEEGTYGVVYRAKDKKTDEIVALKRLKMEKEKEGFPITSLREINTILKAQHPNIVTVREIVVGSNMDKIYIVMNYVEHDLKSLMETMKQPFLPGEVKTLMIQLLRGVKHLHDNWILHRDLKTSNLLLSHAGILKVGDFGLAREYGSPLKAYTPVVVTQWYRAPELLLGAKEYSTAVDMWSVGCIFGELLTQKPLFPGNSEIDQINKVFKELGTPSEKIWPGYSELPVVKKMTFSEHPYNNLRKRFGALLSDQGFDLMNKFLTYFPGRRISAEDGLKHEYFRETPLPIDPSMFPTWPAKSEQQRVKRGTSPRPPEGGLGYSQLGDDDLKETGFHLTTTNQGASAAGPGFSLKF

[3] = target: Tyrosine-protein kinase ABL2 (Homo sapiens, UniProt P42684); assay: Selectivity interaction (Ambit KINOMEscan and KiNATiv profiling in Jurkat cells) EUB0000090b ABL2; assay type: cell-based; settings: at 1 µM
[4] = target: Tyrosine-protein kinase Fer (Homo sapiens) (UniProt P16591); assay: Selectivity interaction (ActivX KiNativ screen (ex vivo kinase selectivity in human PBMCs)) EUB0001619a FER; assay type: cell-based; settings: PBMC, at 1 µM
Chain of Tyrosine-protein kinase Fer (Homo sapiens) (P16591 whole entry, looked up): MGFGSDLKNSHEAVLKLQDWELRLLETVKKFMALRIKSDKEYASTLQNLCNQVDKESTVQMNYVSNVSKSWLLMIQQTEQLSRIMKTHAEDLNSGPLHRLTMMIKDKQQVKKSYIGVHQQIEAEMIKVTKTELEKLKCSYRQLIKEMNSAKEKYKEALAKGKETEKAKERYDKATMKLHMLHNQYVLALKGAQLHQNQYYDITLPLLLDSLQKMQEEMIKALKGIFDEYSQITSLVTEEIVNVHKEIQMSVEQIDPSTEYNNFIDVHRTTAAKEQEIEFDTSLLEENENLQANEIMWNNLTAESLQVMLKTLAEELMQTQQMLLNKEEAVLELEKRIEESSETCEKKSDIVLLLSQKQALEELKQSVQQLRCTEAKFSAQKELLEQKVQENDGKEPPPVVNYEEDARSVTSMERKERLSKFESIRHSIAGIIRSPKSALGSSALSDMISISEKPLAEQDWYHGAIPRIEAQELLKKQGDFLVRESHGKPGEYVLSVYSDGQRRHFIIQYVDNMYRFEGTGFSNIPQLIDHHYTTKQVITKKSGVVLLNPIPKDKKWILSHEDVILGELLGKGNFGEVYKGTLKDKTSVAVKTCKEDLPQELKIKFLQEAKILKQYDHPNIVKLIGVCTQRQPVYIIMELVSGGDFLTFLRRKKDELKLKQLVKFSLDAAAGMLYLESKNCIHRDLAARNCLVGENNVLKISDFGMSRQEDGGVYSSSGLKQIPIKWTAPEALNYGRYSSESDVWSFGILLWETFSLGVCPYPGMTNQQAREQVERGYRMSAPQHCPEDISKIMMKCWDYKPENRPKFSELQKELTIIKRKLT

[5] = target: T2, Serine/threonine-protein kinase TBK1 (Homo sapiens) (UniProt Q9UHD2); assay: Selectivity interaction (KinomeScan (DiscoverX)) EUB0001619a TBK1; settings: at 1 µM
T2 sequence (whole entry): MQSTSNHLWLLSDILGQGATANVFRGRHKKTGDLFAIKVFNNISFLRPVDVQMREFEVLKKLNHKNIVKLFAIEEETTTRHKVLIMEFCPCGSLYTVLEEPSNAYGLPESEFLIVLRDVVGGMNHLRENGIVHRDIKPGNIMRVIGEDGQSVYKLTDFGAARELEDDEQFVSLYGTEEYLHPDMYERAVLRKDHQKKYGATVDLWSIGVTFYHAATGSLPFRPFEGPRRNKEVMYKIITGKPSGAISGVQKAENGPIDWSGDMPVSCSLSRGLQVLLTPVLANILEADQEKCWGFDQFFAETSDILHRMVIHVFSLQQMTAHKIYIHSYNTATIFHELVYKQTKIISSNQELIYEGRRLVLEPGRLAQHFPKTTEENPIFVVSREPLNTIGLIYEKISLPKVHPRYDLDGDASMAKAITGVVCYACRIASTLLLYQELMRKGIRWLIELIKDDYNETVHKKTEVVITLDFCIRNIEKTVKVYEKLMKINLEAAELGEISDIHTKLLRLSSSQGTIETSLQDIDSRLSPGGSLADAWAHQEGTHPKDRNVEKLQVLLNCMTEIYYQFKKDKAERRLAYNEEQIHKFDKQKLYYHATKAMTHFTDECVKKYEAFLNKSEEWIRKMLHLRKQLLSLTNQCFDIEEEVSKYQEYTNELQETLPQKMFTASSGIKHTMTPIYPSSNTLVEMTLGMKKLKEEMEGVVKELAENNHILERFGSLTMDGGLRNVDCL

[6] = target: Serine/threonine-protein kinase MRCK gamma (Homo sapiens) (UniProt Q6DT37); settings: at 10 µM
[7] = target: T3, Inhibitor of nuclear factor kappa-B kinase subunit alpha (Homo sapiens) (UniProt O15111); settings: at 1 µM
T3 sequence (whole entry): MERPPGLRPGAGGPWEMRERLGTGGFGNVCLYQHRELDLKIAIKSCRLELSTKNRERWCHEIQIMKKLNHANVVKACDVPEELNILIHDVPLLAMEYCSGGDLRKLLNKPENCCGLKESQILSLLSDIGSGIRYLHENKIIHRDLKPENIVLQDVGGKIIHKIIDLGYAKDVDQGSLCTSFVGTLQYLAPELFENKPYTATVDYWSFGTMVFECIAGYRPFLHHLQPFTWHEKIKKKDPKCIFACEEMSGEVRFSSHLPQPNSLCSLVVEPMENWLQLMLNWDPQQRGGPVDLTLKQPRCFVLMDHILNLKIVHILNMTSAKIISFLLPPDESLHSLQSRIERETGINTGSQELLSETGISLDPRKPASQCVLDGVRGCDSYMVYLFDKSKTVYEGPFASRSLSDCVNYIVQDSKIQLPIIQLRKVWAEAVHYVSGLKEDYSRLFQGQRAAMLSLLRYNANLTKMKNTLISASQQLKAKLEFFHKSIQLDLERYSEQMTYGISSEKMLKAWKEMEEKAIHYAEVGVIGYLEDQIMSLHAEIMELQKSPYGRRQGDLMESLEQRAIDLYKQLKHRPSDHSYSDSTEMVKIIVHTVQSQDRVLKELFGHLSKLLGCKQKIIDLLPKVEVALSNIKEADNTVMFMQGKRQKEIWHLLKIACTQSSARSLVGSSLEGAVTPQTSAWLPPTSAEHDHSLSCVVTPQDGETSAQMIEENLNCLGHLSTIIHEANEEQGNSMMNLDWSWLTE

[8] = target: Mitogen-activated protein kinase 9 (Homo sapiens, UniProt P45984); assay: Selectivity interaction (KinomeScan (DiscoverX)) EUB0000666a MAPK9; settings: at 10 µM
Chain of Mitogen-activated protein kinase 9 (P45984 whole entry, looked up): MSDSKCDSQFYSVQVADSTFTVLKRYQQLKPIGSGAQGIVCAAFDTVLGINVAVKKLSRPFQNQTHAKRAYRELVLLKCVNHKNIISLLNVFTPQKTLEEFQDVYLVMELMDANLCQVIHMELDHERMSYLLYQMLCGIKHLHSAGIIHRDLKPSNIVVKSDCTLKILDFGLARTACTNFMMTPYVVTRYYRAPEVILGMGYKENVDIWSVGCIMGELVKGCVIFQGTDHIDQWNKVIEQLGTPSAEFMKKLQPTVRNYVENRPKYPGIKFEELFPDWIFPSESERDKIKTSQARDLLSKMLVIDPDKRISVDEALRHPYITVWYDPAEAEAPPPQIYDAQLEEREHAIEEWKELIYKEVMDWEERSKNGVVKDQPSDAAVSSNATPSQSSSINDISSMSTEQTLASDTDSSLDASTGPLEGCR

[9] = tested on: Hepatocyte growth factor receptor (Homo sapiens), P08581 [M1250T]; assay: (§1) Selectivity interaction (KinomeScan (DiscoverX)) EUB0000092b MET; settings: at 10 µM
[10] = target: Hepatocyte growth factor receptor (Homo sapiens, UniProt P08581); assay: as §1; settings: at 10 µM
Chain of Hepatocyte growth factor receptor (P08581 whole entry): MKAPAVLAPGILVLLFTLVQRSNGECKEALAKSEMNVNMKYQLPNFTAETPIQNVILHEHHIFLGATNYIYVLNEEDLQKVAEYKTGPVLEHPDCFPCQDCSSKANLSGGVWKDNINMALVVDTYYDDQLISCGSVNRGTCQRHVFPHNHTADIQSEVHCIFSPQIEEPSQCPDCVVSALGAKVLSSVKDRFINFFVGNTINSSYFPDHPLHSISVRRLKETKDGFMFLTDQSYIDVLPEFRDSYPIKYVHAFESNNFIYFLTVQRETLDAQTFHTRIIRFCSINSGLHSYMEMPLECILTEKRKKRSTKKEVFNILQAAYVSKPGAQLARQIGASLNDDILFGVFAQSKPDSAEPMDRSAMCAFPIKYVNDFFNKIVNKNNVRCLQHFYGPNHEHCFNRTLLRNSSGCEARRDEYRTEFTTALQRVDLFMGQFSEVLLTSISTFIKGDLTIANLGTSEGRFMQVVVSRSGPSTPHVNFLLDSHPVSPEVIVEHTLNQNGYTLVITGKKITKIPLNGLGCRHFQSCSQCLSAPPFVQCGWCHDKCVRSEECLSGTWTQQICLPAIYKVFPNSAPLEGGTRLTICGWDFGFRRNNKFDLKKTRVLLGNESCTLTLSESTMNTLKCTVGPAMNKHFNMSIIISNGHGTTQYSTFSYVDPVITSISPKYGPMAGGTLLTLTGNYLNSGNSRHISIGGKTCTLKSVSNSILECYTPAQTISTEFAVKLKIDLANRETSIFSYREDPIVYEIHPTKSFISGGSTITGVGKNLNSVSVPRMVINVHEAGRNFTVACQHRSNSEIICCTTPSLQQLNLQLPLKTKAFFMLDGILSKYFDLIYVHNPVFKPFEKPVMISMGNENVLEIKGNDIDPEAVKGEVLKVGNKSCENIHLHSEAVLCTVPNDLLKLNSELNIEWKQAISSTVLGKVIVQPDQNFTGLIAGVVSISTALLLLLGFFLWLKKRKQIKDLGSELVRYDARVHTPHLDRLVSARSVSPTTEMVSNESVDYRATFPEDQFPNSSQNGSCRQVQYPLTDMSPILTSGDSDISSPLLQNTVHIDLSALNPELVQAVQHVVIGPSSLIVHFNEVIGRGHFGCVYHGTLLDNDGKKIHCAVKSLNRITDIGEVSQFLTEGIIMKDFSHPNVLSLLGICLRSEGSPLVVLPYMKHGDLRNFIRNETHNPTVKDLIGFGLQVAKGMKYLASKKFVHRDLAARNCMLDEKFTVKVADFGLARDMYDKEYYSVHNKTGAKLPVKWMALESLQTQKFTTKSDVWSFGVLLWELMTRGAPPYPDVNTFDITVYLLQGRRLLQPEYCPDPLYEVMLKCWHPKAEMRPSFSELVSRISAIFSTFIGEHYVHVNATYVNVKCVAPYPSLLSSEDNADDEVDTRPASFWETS

[11] = tested on: Hepatocyte growth factor receptor (Homo sapiens), P08581 [Y1235D]; assay: as §1; settings: at 10 µM
Chain of Hepatocyte growth factor receptor (Homo sapiens), P08581 [Y1235D] (P08581 whole entry Y1235D): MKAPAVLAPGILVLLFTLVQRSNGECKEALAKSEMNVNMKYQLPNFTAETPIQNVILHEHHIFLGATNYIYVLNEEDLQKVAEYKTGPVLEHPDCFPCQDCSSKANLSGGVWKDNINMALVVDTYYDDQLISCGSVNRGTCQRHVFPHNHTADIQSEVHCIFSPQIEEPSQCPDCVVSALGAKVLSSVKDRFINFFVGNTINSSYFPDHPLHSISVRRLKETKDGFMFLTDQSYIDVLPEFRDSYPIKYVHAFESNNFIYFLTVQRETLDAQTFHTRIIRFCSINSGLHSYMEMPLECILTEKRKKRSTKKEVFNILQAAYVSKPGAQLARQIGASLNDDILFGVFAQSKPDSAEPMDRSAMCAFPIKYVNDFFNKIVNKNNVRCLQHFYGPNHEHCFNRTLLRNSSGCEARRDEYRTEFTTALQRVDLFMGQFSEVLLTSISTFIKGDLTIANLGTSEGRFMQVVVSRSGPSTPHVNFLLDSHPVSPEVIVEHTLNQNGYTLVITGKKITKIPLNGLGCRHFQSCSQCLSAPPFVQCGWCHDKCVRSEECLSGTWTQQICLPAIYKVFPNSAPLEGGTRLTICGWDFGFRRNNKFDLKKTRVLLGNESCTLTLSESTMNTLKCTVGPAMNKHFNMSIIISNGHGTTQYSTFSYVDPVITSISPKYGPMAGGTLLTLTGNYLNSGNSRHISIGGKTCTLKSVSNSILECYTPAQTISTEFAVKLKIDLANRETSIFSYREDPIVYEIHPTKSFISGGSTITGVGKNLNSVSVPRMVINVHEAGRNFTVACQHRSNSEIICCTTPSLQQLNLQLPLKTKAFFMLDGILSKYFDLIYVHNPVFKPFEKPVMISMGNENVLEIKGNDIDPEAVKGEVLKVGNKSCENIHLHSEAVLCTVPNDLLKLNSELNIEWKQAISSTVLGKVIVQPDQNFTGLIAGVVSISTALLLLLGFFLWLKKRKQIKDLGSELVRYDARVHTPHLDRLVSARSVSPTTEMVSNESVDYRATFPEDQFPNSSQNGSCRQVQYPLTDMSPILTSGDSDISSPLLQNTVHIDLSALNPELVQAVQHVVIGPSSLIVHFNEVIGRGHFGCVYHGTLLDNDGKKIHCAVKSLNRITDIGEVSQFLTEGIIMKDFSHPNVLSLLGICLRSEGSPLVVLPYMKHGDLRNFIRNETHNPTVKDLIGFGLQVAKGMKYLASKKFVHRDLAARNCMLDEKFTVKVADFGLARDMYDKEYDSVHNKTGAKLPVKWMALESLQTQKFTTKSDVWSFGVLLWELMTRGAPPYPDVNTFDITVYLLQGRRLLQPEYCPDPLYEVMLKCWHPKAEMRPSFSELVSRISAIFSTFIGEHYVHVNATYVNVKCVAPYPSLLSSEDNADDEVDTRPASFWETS

[12] = target: Microtubule-associated serine/threonine-protein kinase 1 (Homo sapiens) (UniProt Q9Y2H9); assay: Selectivity interaction (KinomeScan (DiscoverX)) EUB0000092b MAST1; settings: at 10 µM
[13] = target: Epithelial discoidin domain-containing receptor 1 (Homo sapiens) (UniProt Q08345); assay: Selectivity interaction (LanthaScreen Eu Kinase Binding Assay) EUB0001632a DDR1; settings: at 10 µM
Chain of Epithelial discoidin domain-containing receptor 1 (Homo sapiens) (Q08345 whole entry, the tested form may be a part): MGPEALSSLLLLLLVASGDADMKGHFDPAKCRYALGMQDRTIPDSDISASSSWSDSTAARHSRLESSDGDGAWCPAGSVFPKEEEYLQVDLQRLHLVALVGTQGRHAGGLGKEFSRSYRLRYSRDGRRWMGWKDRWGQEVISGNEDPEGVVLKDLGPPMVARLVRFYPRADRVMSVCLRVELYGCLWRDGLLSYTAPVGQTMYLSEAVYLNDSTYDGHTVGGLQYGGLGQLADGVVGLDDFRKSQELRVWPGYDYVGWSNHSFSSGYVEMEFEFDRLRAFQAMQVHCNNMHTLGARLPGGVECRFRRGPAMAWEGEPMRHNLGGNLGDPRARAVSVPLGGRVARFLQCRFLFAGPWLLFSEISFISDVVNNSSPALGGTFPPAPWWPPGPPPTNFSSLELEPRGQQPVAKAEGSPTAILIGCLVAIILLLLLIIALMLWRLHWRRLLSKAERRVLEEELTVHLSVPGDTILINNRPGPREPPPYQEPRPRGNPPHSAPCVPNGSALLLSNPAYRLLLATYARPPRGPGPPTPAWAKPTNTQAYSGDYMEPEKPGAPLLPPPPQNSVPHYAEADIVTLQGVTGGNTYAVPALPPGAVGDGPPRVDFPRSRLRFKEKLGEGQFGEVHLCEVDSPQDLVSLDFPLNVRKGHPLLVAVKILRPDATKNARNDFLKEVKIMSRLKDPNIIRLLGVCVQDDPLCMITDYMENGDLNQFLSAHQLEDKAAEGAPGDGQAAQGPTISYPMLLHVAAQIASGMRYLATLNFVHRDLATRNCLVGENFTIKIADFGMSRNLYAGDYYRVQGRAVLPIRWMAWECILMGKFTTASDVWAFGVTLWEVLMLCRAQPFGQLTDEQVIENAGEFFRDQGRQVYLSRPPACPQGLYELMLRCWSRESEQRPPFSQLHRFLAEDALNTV

Structure (SMILES): CN(C)C/C=C/C(=O)Nc1ccc(C(=O)N2CCCC(Nc3ncc(Cl)c(-c4c[nH]c5ccccc45)n3)C2)cc1 (stereo not drawn)
- % of control [1]: 89%
- % of control [2]: 100%
- % of control [3]: 92%

Structure (SMILES): N#Cc1cccc(-c2c[nH]c3ncnc(N4CCOCC4)c23)c1
- % of inhibition [4]: 12%
- % of control [5]: 100%

Structure (SMILES): COCC(=O)NC/C=C/c1ccc2ncnc(Nc3ccc(Oc4ccc(C)nc4)c(C)c3)c2c1 [CP-724714]
- % of control [6]: 90%

- % of inhibition [7]: -5%
Structure (SMILES): Cc1ccc(-c2ccc3c(ccc4sc5c(c43)NC[C@@H](C)NC5=O)n2)cn1

Structure (SMILES): O=C(NOC[C@H](O)CO)c1ccc(F)c(F)c1Nc1ccc(I)cc1F
- % of control [8]: 88%

Structure (SMILES): CCC(=O)N1CCN(c2ccc(-n3c(=O)ccc4cnc5ccc(-c6cnc7ccccc7c6)cc5c43)cc2C(F)(F)F)CC1
- % of control [9]: 79%
- % of control [10]: 84%
- % of control [11]: 100%
- % of control [12]: 93%

- % of inhibition [13]: 0.322%
Structure (SMILES): Cn1cc(-n2cnc3c(NCc4nc5cc(Cl)c(Cl)cc5[nH]4)nc(N4CCOCC4)nc32)cn1
